Test results reported in patent US20110092544A1, “FUNGICIDAL PYRIDINES” (E.I. DU PONT DE nemours and company, priority 2008, published 2011).

Columns and labels:
Assay type in all cases: in vivo
[1] = test system: Puccinia recondite f. sp. tritici; experiment: Test B: wheat leaf rust, preventive spray on wheat seedlings, visual disease rating
From the text: (§1) General protocol for preparing test suspensions for Tests A-H: The test compounds were first dissolved in acetone in an amount equal to 3% of the final volume and then suspended at the desired concentration (in ppm) in acetone and purified water (50/50 mix) containing 250 ppm of the surfactant Trem® 014 (polyhydric alcohol esters). The resulting test suspensions were then used in tests A-H. Spraying a 200 ppm test suspension to the point of run-off on the test plants was the equivalent of a rate of 500 g/ha.
The test suspension was sprayed to the point of run-off on wheat seedlings. The following day the seedlings were inoculated with a spore suspension of Puccinia recondite f. sp. tritici (the causal agent of wheat leaf rust) and incubated in a saturated atmosphere at 20° C. for 24 h, and then moved to a growth chamber at 20° C. for 7 days, after which time disease ratings were visually made.
(§2) Results for Tests A-H are given in Table A. In the table, a rating of 100 indicates 100% disease control and a rating of 0 indicates no disease control (relative to the controls). A dash (-) indicates no test results. All results are for compounds tested at 200 ppm except where the compound number is followed by “*” which indicates the compound was tested at 40 ppm.

[2] = test system: Erysiphe graminis f. sp. tritici; experiment: Test A: wheat powdery mildew, preventive spray on wheat seedlings, visual disease rating
From the text: as §1
The test suspension was sprayed to the point of run-off on wheat seedlings. The following day the seedlings were inoculated with a spore dust of Erysiphe graminis f. sp. tritici (the causal agent of wheat powdery mildew) and incubated in a growth chamber at 20° C. for 8 days, after which time disease ratings were visually made.
as §2

Septoria nodorum = experiment: Test D: wheat glume blotch, preventive spray on wheat seedlings, visual disease rating
From the text: as §1
The test suspension was sprayed to the point of run-off on wheat seedlings. The following day the seedlings were inoculated with a spore suspension of Septoria nodorum (the causal agent of wheat glume blotch) and incubated in a saturated atmosphere at 20° C. for 48 h, and then moved to a growth chamber at 20° C. for 7 days, after which time disease ratings were visually made.
as §2

Alternaria solani = experiment: Test E: tomato early blight, preventive spray on tomato seedlings, visual disease rating
From the text: as §1
The test suspension was sprayed to the point of run-off on tomato seedlings. The following day the seedlings were inoculated with a spore suspension of Alternaria solani (the causal agent of tomato early blight) and incubated in a saturated atmosphere at 27° C. for 48 h, and then moved to a growth chamber at 20° C. for 5 days, after which time disease ratings were visually made.
as §2

Septoria tritici = experiment: Test C: wheat leaf blotch, preventive spray on wheat seedlings, visual disease rating
From the text: as §1
The test suspension was sprayed to the point of run-off on wheat seedlings. The following day the seedlings were inoculated with a spore suspension of Septoria tritici (the causal agent of wheat leaf blotch) and incubated in a saturated atmosphere at 20° C. for 48 h, and moved to a growth chamber at 20° C. for 19 additional days, after which time disease ratings were visually made.
as §2

Botrytis cinerea = experiment: Test F: tomato botrytis, preventive spray on tomato seedlings, visual disease rating
From the text: as §1
The test suspension was sprayed to the point of run-off on tomato seedlings. The following day the seedlings were inoculated with a spore suspension of Botrytis cinerea (the causal agent of tomato botrytis) and incubated in saturated atmosphere at 20° C. for 48 h, and then moved to a growth chamber at 24° C. for 3 additional days, after which time disease ratings were visually made.
as §2

[3] = 200 ppm, 100 = 100% disease control, 0 = no control
[4] = 40 ppm (compound number followed by *)

Row | SMILES | Test B rating (% disease control) [1, 3] | Test A rating (% disease control) [2, 3] | Test D rating (% disease control) (Septoria nodorum; [3]) | Test E rating (% disease control) (Alternaria solani; [3]) | Test C rating (% disease control) (Septoria tritici; [3]) | Test F rating (% disease control) (Botrytis cinerea; [3]) | Test B rating (% disease control) [1, 4] | Test A rating (% disease control) [2, 4] | Test D rating (% disease control) (Septoria nodorum; [4]) | Test E rating (% disease control) (Alternaria solani; [4]) | Test C rating (% disease control) (Septoria tritici; [4]) | Test F rating (% disease control) (Botrytis cinerea; [4])
1 | COc1ccc(-c2c(C)ncc(C(C)(O)CO)c2-c2cc(OC)cc(OC)c2)cc1 (single isomer, unassigned) [Compound 83] | 99% | 95% | 0% | 99% | 95% | 54% |  |  |  |  |  | 
2 | COc1ccc(-c2c(C)ncc(C(C)(O)CO)c2-c2cc(OC)cc(OC)c2)cc1 (single isomer, unassigned) [Compound 85] | 61% | 43% | 0% | 0% | 43% | 96% |  |  |  |  |  | 
3 | COc1cc(OC)cc(-c2c(C(C)=NO)cnc(C)c2-c2c(F)cc(F)cc2F)c1 (single isomer, unassigned) [Compound 114] |  |  |  |  |  |  | 99% | 89% | 69% | 94% | 99% | 99%
4 | COc1cc(OC)cc(-c2c(C(C)=NO)cnc(C)c2-c2c(F)cc(F)cc2F)c1 (single isomer, unassigned) [Compound 117] |  |  |  |  |  |  | 100% | 93% | 82% | 99% | 99% | 99%
5 | C=C(C)c1cnc(CC)c(-c2ccccc2)c1-c1cc(OC)cc(OC)c1 [Compound 29] |  |  |  |  |  |  | 0% | 91% | 0% | 91% | 98% | 80%
6 | COc1cc(OC)cc(-c2c(C3CCOCC3)cnc(C)c2-c2ccc(F)cc2)c1 [Compound 59] | 100% | 79% | 92% | 100% | 97% | 100% |  |  |  |  |  | 
7 | CCOC(=O)c1cnc(C)c(-c2ccc(OC)cc2)c1-c1cc(OC)cc(OC)c1 [Compound 60] | 59% | 59% | 0% | 0% | 68% | 99% |  |  |  |  |  | 
8 | COc1ccc(-c2c(C)ncc(C(C)=O)c2-c2cc(OC)cc(OC)c2)cc1 [Compound 61] | 99% | 86% | 0% | 83% | 84% | 99% |  |  |  |  |  | 
9 | COc1ccc(-c2c(C)ncc(C(C)(C)O)c2-c2cc(OC)cc(OC)c2)cc1 [Compound 62] | 100% | 80% | 73% | 100% | 94% | 95% |  |  |  |  |  | 
10 | CCC(C)c1cnc(C)c(-c2ccc(F)cc2)c1-c1cc(OC)cc(OC)c1 (centres unmarked) [Compound 63] | 96% | 78% | 0% | 74% | 79% | 97% |  |  |  |  |  | 
11 | C=C(C)c1cnc(C)c(-c2ccc(OC)cc2)c1-c1cc(OC)cc(OC)c1 [Compound 64] | 99% | 85% | 90% | 100% | 95% | 99% |  |  |  |  |  | 
12 | COc1ccc(-c2c(C)ncc(C(C)C)c2-c2cc(OC)cc(OC)c2)cc1 [Compound 65] | 98% | 80% | 0% | 100% | 96% | 99% |  |  |  |  |  | 
13 | CCOC(=O)c1cnc(C)c(-c2c(F)ccc(F)c2F)c1-c1cc(OC)cc(OC)c1 [Compound 66] | 98% | 99% | 0% | 99% | 98% | 95% |  |  |  |  |  | 
14 | COc1cc(OC)cc(-c2c(C3CCCC3)cnc(C)c2-c2c(F)cccc2F)c1 [Compound 67] |  |  |  |  |  |  | 100% | 100% | 0% | 99% | 95% | 99%
15 | COc1cc(OC)cc(-c2c(C(C)=O)cnc(C)c2-c2c(F)ccc(F)c2F)c1 [Compound 68] | 99% | 100% | 0% | 99% | 88% | 99% |  |  |  |  |  | 
16 | COc1cc(OC)cc(-c2c(C(C)(C)O)cnc(C)c2-c2c(F)ccc(F)c2F)c1 [Compound 69] | 100% | 99% | 86% | 100% | 94% | 91% |  |  |  |  |  | 
17 | CCOC(=O)c1cnc(C)c(-c2c(F)cc(OC)cc2F)c1-c1cc(OC)cc(OC)c1 [Compound 70] | 95% | 94% | 0% | 79% | 93% | 97% |  |  |  |  |  | 
18 | COc1cc(OC)cc(-c2c(C(C)=O)cnc(C)c2-c2c(F)cc(OC)cc2F)c1 [Compound 71] | 100% | 98% | 81% | 100% | 95% | 99% |  |  |  |  |  | 
19 | COc1cc(OC)cc(-c2c(C(C)C)cnc(C)c2-c2c(F)ccc(F)c2F)c1 [Compound 78] |  |  |  |  |  |  | 99% | 100% | 0% | 96% | 92% | 
